We go through three molecules from ChEMBL document CHEMBL2021798, “Discovery of new quinoline ether inhibitors with high affinity and selectivity for PDGFR tyrosine kinases” (Bioorg Med Chem Lett, 2012).

Molecules are shown by their SMILES.

By CL/F is commonly meant clearance divided by bioavailability, as obtained after extravascular dosing. The pKa is the negative logarithm of the acid dissociation constant. Usually logD stands for lipophilicity at a set pH, counting ionised and neutral species. Broadly, the bioavailability is dose-corrected exposure relative to a reference, in per cent.

In data set [1] the test system is Rattus norvegicus. The data set can be described thus: Volume of distribution at steady state in rat at 20 mg/kg, po. Format: ADME, organism-based. Further details: dose 20 mg/kg, route oral. To be noted: in vivo.
The nature of data set [2]: Clearance in dog at 20 mg/kg, po. The class given is ADME, organism-based, Canis lupus familiaris. Details: dose 20 mg/kg, route oral. To be noted: in vivo.
The nature of data set [3]: Terminal half life in rat at 20 mg/kg, iv. The class given is ADME, organism-based. Further details: dose 20 mg/kg, route intravenous. As to conditions: in vivo, read-out: beta t1/2 (converted).
The nature of data set [4]: Dissociation constant, pKa of the compound. The class given is physicochemical.
Data set [5] in a line: Lipophilicity, log D of the compound. Format: physicochemical. As to conditions: octanol/water.
Data set [6] can be described thus: Terminal half life in dog at 20 mg/kg, iv. The class given is ADME, organism-based, Canis lupus familiaris. Details: dose 20 mg/kg, route intravenous. As to conditions: in vivo, read-out: beta t1/2 (converted).
Data set [7] in a line: Oral bioavailability in dog at 20 mg/kg. Format: ADME, organism-based, Canis lupus familiaris. To be noted: in vivo.
Data set [8] relates to Canis familiaris. Kind of data set: Volume of distribution at steady state in dog at 20 mg/kg, po. Format: ADME, organism-based, Canis lupus familiaris. Details: dose 20 mg/kg, route oral. To be noted: in vivo.
A short description of data set [9]: Clearance in rat at 20 mg/kg, po. To be noted: in vivo. Details: dose 20 mg/kg, route oral. The class given is ADME, organism-based.
Data set [10] in a line: Oral bioavailability in rat at 20 mg/kg. As to conditions: in vivo. The class given is ADME, organism-based.
Data set [11] can be described thus: Oral bioavailability in rat at 3 mg/kg. Format: ADME, organism-based. As to conditions: in vivo.
A short description of data set [12]: Oral bioavailability in dog at 3 mg/kg. Format: ADME, organism-based, Canis lupus familiaris. To be noted: in vivo.
The nature of data set [13]: Terminal half life in rat at 3 mg/kg, iv. Format: ADME, organism-based. Further details: dose 3 mg/kg, route intravenous. As to conditions: in vivo, read-out: beta t1/2 (converted).
The test system of data set [14] is Canis familiaris. The data set can be described thus: Volume of distribution at steady state in dog at 3 mg/kg, po. The class given is ADME, organism-based, Canis lupus familiaris. Details: dose 3 mg/kg, route oral. To be noted: in vivo.
Data set [15] in a line: Terminal half life in dog at 3 mg/kg, iv. To be noted: in vivo, read-out: beta t1/2 (converted). The class given is ADME, organism-based, Canis lupus familiaris. Further details: dose 3 mg/kg, route intravenous.
Data set [16] can be described thus: Clearance in dog at 3 mg/kg, po. Format: ADME, organism-based, Canis lupus familiaris. Details: dose 3 mg/kg, route oral. To be noted: in vivo.
A short description of data set [17]: Clearance in rat at 3 mg/kg, po. Format: ADME, organism-based. Details: dose 3 mg/kg, route oral. To be noted: in vivo.
Data set [18] relates to Rattus norvegicus. The data set can be described thus: Volume of distribution at steady state in rat at 3 mg/kg, po. The class given is ADME, organism-based. Details: dose 3 mg/kg, route oral. As to conditions: in vivo.

`COc1ccc2c(Oc3ccc(CC(=O)Nc4cn(C)nc4C)c(OC)c3)ccnc2c1.O=S(=O)(O)O`: the figures for the Vdss in the data set with Rattus norvegicus [1] and in the data set on Canis familiaris [8] were 0.7 L/kg and 1.8 L/kg, respectively. Further, the results for the CL/F in data set [2] and in data set [9] were 2.5 mL/min/kg and 5.7 mL/min/kg, respectively. Moreover, the half-life in data set [3] is 3.7 h; in data set [6], 10.6 h. This molecule also showed a pKa in data set [4] of 6.3. The same molecule registered a logD in data set [5] of 3.5. Further, the bioavailability in [7] was determined as 59%; in data set [10], 78%.

For `COc1ccc2c(Oc3ccc(CC(=O)Nc4cn(C)nc4C)c(OC)c3)ccnc2c1`, the results for the Vdss in the data set on Rattus norvegicus [1] and with Canis familiaris [8] were 0.7 L/kg and 1.4 L/kg, respectively. The same molecule displayed an apparent clearance CL/F in data set [2] of 2.4 mL/min/kg. Besides, the half-life was 3.7 h in data set [3] and 8.6 h in data set [6].

On to `CCOc1cc2nccc(Oc3cnc(CC(=O)Nc4n[nH]c(CC)c4C)c(OC)c3)c2cc1OC`, for which the bioavailability in [11] was determined as 43%; in data set [12], 100%. In data set [4], this molecule had a pKa of 6. For the same molecule, in [5], the logD was 3.3. In addition, the results for the half-life in [13] and in [15] were 1.6 h and 3.4 h, respectively. Besides, the Vdss was determined as 2 L/kg in the data set with Canis familiaris [14] and 0.7 L/kg with Rattus norvegicus [18]. Besides, the CL/F in [16] amounted to 11.5 mL/min/kg; in data set [17], 9 mL/min/kg.
